Test results: paper PMC6130618, “Bioactivity-guided isolation of anti-proliferative compounds from endemic Centaurea kilaea” (Pharmaceutical Biology, 2016)
≈ marks a conversion by molar mass, not a printed value. Where two headings read alike, the source gives them in different places.

Experiments:
[1] = test system: MCF-7 (breast adenocarcinoma); assay: MTT anti-proliferative assay, MCF-7; type: cell-based; settings: Homo sapiens, MCF7; MCF-7, MTT, 48 h, 0.5–50 μg/mL, mean ± SD; read-out: Cytotoxic activity IC50, MCF-7
Experimental: (§1) Anti-proliferative activity of compounds (0.5–50 μg/mL) against three human cancer cell lines were carried out by MTT test as specified in our previous study (Sen et al. [2015]). Compounds were tested for their cytotoxic activities. Cell viability and cytotoxic activity profile of the compounds were analyzed using the MTT assay (Mosman 1983; Woerdenbag et al. [1986]; Beekman et al. [1997]). MTT is cleaved to formazan by the ‘succinate-tetrazolium reductase’ system (EC 1.3.99.1) which belongs to the mitochondrial respiratory chain and is active only in viable cells. Different cell lines were used for the determination of cytotoxic activity [HeLa; (ATCC®, CCL- 2™), MCF-7 (ATCC®, HTB-22™), PC-3; (ATCC®, CRL-1435™)]. The cells were cultured with DMEM (Dulbecco’s Modified Eagle’s Medium) supplemented with 10% FBS (Foetal bovine serum), 1% L-glutamine and antibiotic solutions (penicillin–streptomycin–amphotericin).
(§2) In vitro cytotoxicity test was done by the method of modified Woerdenbag et al. ([1986]). The MTT metabolic assay was carried out with cells seeded at a density of 1 × 10^4 cells/well in 96-well flat-bottom cell culture plates with 100 μL of opti-MEM and 24–48 h incubation at 37 °C, 5% CO2. The following day, media was aspirated and the compounds were dissolved in DMSO and diluted with medium before they were added to the cell cultures at different concentrations. Cells were incubated for 48 h at 37 °C, 5% CO2. After the incubation period, 10 μL of the MTT labelling reagent [final concentration […] (Cell proliferation kit MTT, Roche, Germany)] was added to each well. The cultures were incubated for 4–12 h in a humidified atmosphere (e.g., 37 °C, 5% CO2) and 100 μL of the solubilization buffer was added into each well. The plate was allowed to stand overnight in the incubator in a humidified atmosphere (e.g., 37 °C, 5% CO2), the formazan precipitates were solubilized. Absorbance of the formazan product was measured spectrophotometrically at 550 and 690 nm.

[2] = MTT cytotoxicity assay, normal cell line L-929; type: cell-based; settings: L-929 mouse fibroblast cells (normal cell line), L-929 normal mouse fibroblast, 0.5–50 μg/mL, mean ± SD, read-out: Cytotoxic activity IC50, L-929
Experimental: [Worded in the source for another cell line; this cell line is reported under the same test.] as §1, §2

[3] = test system: Hela (cervix adenocarcinoma); assay: MTT anti-proliferative assay, Hela; type: cell-based; settings: Homo sapiens, 48 h, 0.5–50 μg/mL, mean ± SD, read-out: Cytotoxic activity IC50, Hela
Experimental: as §1, §2

[4] = test system: PC-3 (prostate adenocarcinoma); assay: MTT anti-proliferative assay, PC-3; type: cell-based; settings: Homo sapiens; PC-3, MCF-7 excluded; PC-3, MTT, 48 h, 0.5–50 μg/mL, mean ± SD; read-out: Cytotoxic activity IC50, PC-3
Experimental: as §1, §2

[5] = test system: human malignant melanoma (SK-MEL) cells; design: method as in Erel et al. ([2011]); settings: ref Erel et al. ([2011]); cited from earlier work
MCF-7 cell lines = test system: MCF-7 cell lines; design: method as in Bruno et al. [2005]; Csapi et al. [2010]; settings: ref Bruno et al. [2005], Csapi et al. [2010], cited from earlier work; for Activity on MCF-7 cell lines: same value converted
[6] = test system: human ductal carcinoma (BT-549) cells; design: method as in Erel et al. ([2011]); settings: ref Erel et al. ([2011]); cited from earlier work

Row | Compound | IC50 [1] | IC50 at 48 h [2] | IC50 [3] | IC50 [4] | Cytotoxic effect, SK-MEL [5] | Activity on MCF-7 cell lines (MCF-7 cell lines; another study) | IC50 (MCF-7 cell lines; another study) | Activity on MCF-7 cell lines (MCF-7 cell lines; previous study) | IC50 (MCF-7 cell lines; previous study) | Cytotoxic effect, BT-549 [6]
1 | COc1ccc(-c2cc(=O)c3c(O)c(OC)c(O)cc3o2)cc1 [Pectolinarigenin] | 35.5 ± 2.7 µg/mL (≈ 113 µM) | > 50 µg/mL | > 50 µg/mL | > 50 µg/mL | – | – | – | – | – | –
2 | CC1(C)CC[C@]2(C(=O)O)CC[C@]3(C)C(=CC[C@@H]4[C@@]5(C)CC[C@H](O)C(C)(C)[C@@H]5CC[C@]43C)[C@@H]2C1 [Oleanolic acid] | > 50 µg/mL | > 50 µg/mL | > 50 µg/mL | 45.38 ± 0.42 µg/mL (≈ 99.4 µM) | – | – | – | – | – | –
3 | C=C1CC[C@]2(C)CC[C@]3(C)[C@H](CC[C@@H]4[C@@]5(C)CC[C@H](O)C(C)(C)[C@@H]5CC[C@]43C)[C@H]2[C@@H]1C [Taraxasterol] | > 50 µg/mL | > 50 µg/mL | > 50 µg/mL | > 50 µg/mL | – | – | – | – | – | –
4 | COc1cc2oc(-c3ccc(O)cc3)cc(=O)c2c(O)c1OC [Cirsimaritin] | > 50 µg/mL | > 50 µg/mL | > 50 µg/mL | 4.3 ± 1.55 µg/mL (≈ 13.7 µM) | – | – | – | – | – | –
5 | C=C[C@]1(C)C[C@H](O)[C@H]2C(=C)C(=O)O[C@@H]2[C@H]1C(=C)CO [Dehydromelitensin] | 28.9 ± 0.95 µg/mL (≈ 110 µM) | > 50 µg/mL | > 50 µg/mL | 25 ± 0.44 µg/mL (≈ 94.6 µM) | – | – | – | – | – | –
6 | COc1ccc(-c2cc(=O)c3c(O)c(OC)c(OC)cc3o2)cc1OC [3′-O-Methyl eupatorin] | > 50 µg/mL | > 50 µg/mL | > 50 µg/mL | > 50 µg/mL | – | – | – | – | – | –
7 | O=c1cc(-c2ccc(O)cc2)oc2cc(O)cc(O)c12 [Apigenin] | > 50 µg/mL | > 50 µg/mL | > 50 µg/mL | 44.13 ± 0.33 µg/mL (≈ 163 µM) | – | – | – | – | – | –
8 | COc1ccc(-c2cc(=O)c3c(O)c(OC)c(OC)cc3o2)cc1 [Salvigenin] | > 50 µg/mL | > 50 µg/mL | > 50 µg/mL | > 50 µg/mL | – | – | – | – | – | –
9 | COc1ccc(-c2cc(=O)c3c(O)c(OC)c(OC)cc3o2)cc1O [Eupatorin] | > 50 µg/mL | > 50 µg/mL | > 50 µg/mL | 35.69 ± 0.3 µg/mL (≈ 104 µM) | – | – | – | – | – | –
10 | COc1cc(-c2cc(=O)c3c(O)c(OC)c(O)cc3o2)ccc1O [Jaceosidin] | > 50 µg/mL | > 50 µg/mL | > 50 µg/mL | > 50 µg/mL | – | – | – | – | – | –
11 | C=C1C(=O)O[C@@H]2/C=C(\CO)CC/C=C(\C)C[C@H](OC(=O)C(=C)[C@@H](O)CO)[C@@H]12 [Cnicin] | 3.25 ± 0.03 µg/mL (≈ 8.59 µM) | > 50 µg/mL | > 50 µg/mL | 31.5 ± 0.71 µg/mL (≈ 83.3 µM) | cytotoxic effect | 6.37 µg/mL | 16.8 µM | 1.59 µg/mL | 4.2 µM | cytotoxic effect
